Experimental data published in article PMC10249358, “Elucidation of Short Linear Motif-Based Interactions of the FERM Domains of Ezrin, Radixin, Moesin, and Merlin” (Biochemistry, 2023).
No end group written: not given here.

Legend:
[1] = target: T1, moesin FERM domain (Homo sapiens, UniProt P26038); experiment: Direct binding fluorescence polarization (FP) assay, FITC-labeled probe peptides; settings: FITC-labeled probe peptide 5 nM titrated with FERM domain, 20 mM HEPES pH 7.4, 150 mM NaCl, 0.05% Tween-20, 3 mM DTT, quadratic 1:1 fit, n = 3 technical repeats
T1 construct: pGEX4T Moesin (P26038) FERM was a gift from Vijaya Ramesh (Addgene plasmid # 1163); GST (N, cleaved yes); made in house; host or cells: E. coli BL21(DE3)
Protocol: (§1) For fluorescence polarization (FP) experiments of merlin FERM, the GST tag was removed using HRV3C protease by incubating the enzyme (100 units/10 mg protein) with protein overnight at 4 °C in the dialysis buffer (20 mM HEPES, pH 7.4, 150 mM NaCl, 0.05% Tween-20, and 3 mM DTT). The following day, the cleaved GST and the protease were removed using reverse Ni-IMAC, and the protein was concentrated to the working concentration. For FP experiments using moesin FERM, thrombin (Sigma) was used to cleave the GST tag from moesin FERM domain on GSH sepharose beads (Cytiva) and incubated overnight at 4 °C under gentle rotation. Next day, the beads were collected by gentle centrifugation, while the supernatant containing thrombin and moesin FERM domain was passed through a HiTrap benzamidine column (Cytiva). The protein was then eluted using a high salt (0.7–1 M NaCl) concentration. The buffer was then exchanged using the PD-10 desalting column (Cytiva) into FP buffer (20 mM HEPES, pH 7.4, 150 mM NaCl, 0.05% Tween-20, and 3 mM DTT).
(§2) Synthetic peptides were obtained at 95% purity (GeneCust) and were dissolved in FP buffer (described earlier). To obtain direct binding saturation data, a dilution series of moesin FERM domain was prepared using the FP buffer, and then an equal volume of 10 nM FITC-labeled peptide was added to each sample. After mixing, the FP signals were recorded using SpectraMax iD5 (Molecular Devices). Data were analyzed with GraphPad Prism version 7.0.0 for MacOS (GraphPad Software, San Diego, California USA). A quadratic equation for equilibrium binding[37] was used to fit the obtained data. [drawing 1] where pept indicates the probe peptide concentration (5 nM), X indicates the protein concentration, the constant A being the signal amplitude divided by probe peptide concentration, and B is the plateau value. Direct binding experiments were performed and analyzed the same way in the presence of saturating concentration of unlabeled peptides.

[2] = target: T1, moesin FERM domain; experiment: Direct binding FP in the presence of saturating concentration of unlabeled competing peptide
Protocol: as §2
We next explored the interplay between the F3a and F3b ligands by determining the affinity of FITC-labeled model peptides in the presence of high concentrations of the competing ligands (Figure 6A,B). […] The asymmetric competition could potentially be explained by an allosteric model where binding to the F3a site induces a conformational change of the protein that reduces the affinity for F3b ligands.

[3] = target: T1, moesin FERM domain; experiment: Competitive FP assay, unlabeled peptide outcompetes FITC-labeled probe; type: binding
Protocol: (§3) 25 μL of this premix was added to 25 μL of titrated target peptide. FP signals were determined as described earlier. […] All measurements were performed at least in triplicates.

[4] = target: T2, moesin FERM M285A/H288A (Homo sapiens, UniProt P26038, H288A/M285A); experiment: Direct binding FP assay with F3b-site mutant; settings: direct binding of FITC-labeled probe; Table S7
T2 construct: we generated a mutant moesin FERM domain (M285A and H288A); GST (N, cleaved yes); made in house; host or cells: E. coli BL21(DE3)
Excerpt: Synthetic genes encoding for human merlin FERM (P35240; amino acids 22–312) and radixin FERM (P35241; 5–295) domains were commercially synthesized (ThermoFisher) and cloned into pETM33 using NcoI and EcoRI restriction sites. pGEX4T Moesin (P26038) FERM was a gift from Vijaya Ramesh (Addgene plasmid # 1163[27]). pGEX4T1 Ezrin (P15311) FERM domain was a kind gift from Volker Gerke.[28] Human NOP53-HA-pcDNA was a kind gift from Ronit Sarid.[29] The NOP53 gene was polymerase chain reaction (PCR)-amplified and cloned into CMV10 using HindIII and EcoRI. RRBP1-GFP was kindly provided by Alexander F. Palazzo.[30] HA-HIF1-alpha-pcDNA3 was a gift from William Kaelin (Addgene plasmid # 18949[31]). pcDNA3 LATS1 was a gift from Erich Nigg (Addgene plasmid # 41156[32]). […]
Synthetic peptides were obtained at 95% purity (GeneCust) and were dissolved in FP buffer (described earlier). […] After mixing, the FP signals were recorded using SpectraMax iD5 (Molecular Devices). Data were analyzed with GraphPad Prism version 7.0.0 for MacOS (GraphPad Software, San Diego, California USA). […] Direct binding experiments were performed and analyzed the same way in the presence of saturating concentration of unlabeled peptides.
To validate the models on the receptor side, we generated a mutant moesin FERM domain (M285A and H288A) and determined the effect on the affinity. […]

[5] = target: T3, radixin FERM domain (Homo sapiens, UniProt P35241); experiment: Competitive FP assay, unlabeled peptide outcompetes FITC-labeled probe; type: binding; settings: competition FP, unlabeled peptide vs FITC-KIRREL3 probe; at least triplicates
T3 construct: radixin FERM (P35241; 5–295) domains were commercially synthesized; His-GST (N); made in house; host or cells: E. coli BL21(DE3)
Protocol: as §3

[6] = target: T4, merlin FERM domain (Homo sapiens, UniProt P35240); experiment: Direct binding fluorescence polarization (FP) assay, FITC-labeled probe peptides; settings: FITC-labeled probe peptide 5 nM titrated with FERM domain, 20 mM HEPES pH 7.4, 150 mM NaCl, 0.05% Tween-20, 3 mM DTT, quadratic 1:1 fit, n = 3 technical repeats, N.B. within the concentration range tested
T4 construct: human merlin FERM (P35240; amino acids 22–312); His-GST (N, cleaved yes); made in house; host or cells: E. coli BL21(DE3)
T4 sequence (P35240 22-312): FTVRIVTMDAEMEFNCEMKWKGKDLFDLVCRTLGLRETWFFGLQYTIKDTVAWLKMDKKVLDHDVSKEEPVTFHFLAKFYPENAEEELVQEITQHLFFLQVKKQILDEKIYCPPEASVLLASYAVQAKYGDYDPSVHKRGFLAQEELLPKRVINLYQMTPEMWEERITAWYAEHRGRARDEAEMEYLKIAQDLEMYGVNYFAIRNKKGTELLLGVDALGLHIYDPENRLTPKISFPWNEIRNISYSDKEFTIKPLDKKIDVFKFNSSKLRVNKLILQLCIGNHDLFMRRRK
Protocol: as §1, §2

[7] = direct binding FP in presence of excess unlabeled KIRREL3 (80 μM), Figure 6E, read-out: KD of FITC-labeled probe for moesin FERM, saturating peptide KIRREL3
[8] = direct binding FP in presence of excess unlabeled TBX4 (80 μM), Figure 6F, read-out: KD of FITC-labeled probe for moesin FERM, saturating peptide TBX4
[9] = moesin FERM, unlabeled peptide at about 100 times KD (80–150 μM)
[10] = competitive FP using WT FITC-labeled ZNF622 as probe, Figure 5D, read-out: KD' (moesin FERM, ZNF622 peptide variants)
[11] = competitive FP using FITC-KIRREL3_637–652 as probe, Figure 4G, read-out: KD' (moesin FERM, KIRREL3 and TBX4 peptide variants)

T1 sequence (P26038 2-295 limits assumed): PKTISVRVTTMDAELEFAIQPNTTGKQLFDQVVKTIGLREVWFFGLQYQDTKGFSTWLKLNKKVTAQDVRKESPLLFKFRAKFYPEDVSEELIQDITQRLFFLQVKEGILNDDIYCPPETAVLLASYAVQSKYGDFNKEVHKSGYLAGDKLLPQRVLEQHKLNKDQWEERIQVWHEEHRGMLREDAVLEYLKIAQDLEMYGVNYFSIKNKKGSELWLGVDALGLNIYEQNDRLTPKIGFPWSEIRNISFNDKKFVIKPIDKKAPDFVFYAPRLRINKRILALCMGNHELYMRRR
T2 sequence (P26038 2-295 M285A/H288A limits assumed): as the sequence (P26038 2-295 limits assumed) above, with M284A, H287A counted along it
T3 sequence (P35241 5-295): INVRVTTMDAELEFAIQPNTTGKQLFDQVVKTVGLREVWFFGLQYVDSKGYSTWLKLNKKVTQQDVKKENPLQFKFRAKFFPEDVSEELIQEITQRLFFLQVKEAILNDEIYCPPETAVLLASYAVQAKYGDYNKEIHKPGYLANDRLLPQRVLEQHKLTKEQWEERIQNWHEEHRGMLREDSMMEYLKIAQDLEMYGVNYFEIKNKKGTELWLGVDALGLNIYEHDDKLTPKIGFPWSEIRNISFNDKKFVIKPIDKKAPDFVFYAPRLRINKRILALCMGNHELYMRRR

“APQMDWSKKNELFSNL [EBP50_343–358, reference compound]” was tested, and the Kd [1] was 3 ± 0.3 µM, the Kd [2, 7] was 3.3 ± 0.2 µM and the Kd [2, 8] was 3.4 ± 0.2 µM.

In the case of FYELAHQLPLPHNVSS [HIF1A37–52], the Kd ([3]; competition FP, determined using FITC-ZNF622 as the probe peptide (footnote b), read-out: moesin KD′) is reported as 3 ± 0.4 µM.

ITGSYSVSESPFFSPI [MISP595–610] showed a Kd ([3]; read-out: moesin KD′) of 2.3 ± 0.1 µM.

For “KIRREL3_634–652: unlabeled F3b ligand used at 80 μM as saturating competitor; residue range as printed (TNGYYSVNTFKEHHSTPTI)”, the “effect of excess unlabeled peptide on binding of FITC-EBP50 / FITC-ZNF622 to the F3a site” value [2, 9] was “not binding” and the “effect of excess unlabeled peptide on binding of FITC-KIRREL3 / FITC-TBX4 to the F3b site” value [2, 9] was “blocked binding”.

In the case of LEAADFYDFRSSYPDH, the Kd [3, 10] is reported as 2.3 ± 0.1 µM.

LEFADAYDFRSSYPDH was tested, and the Kd [3, 10] was 85 ± 2 µM.

For LEFADFYAFRSSYPDH, the Kd [3, 10] was 50 ± 2 µM.

LEFADFYDFRSSAPDH showed a Kd [3, 10] of 2.8 ± 0.1 µM.

For LEFADFYDFRSSYPDH [ZNF622_341–356], the Kd [1] was 1 ± 0.1 µM, the Kd [4] was 1.3 ± 0.1 µM and the Kd [2, 7] was 1.4 ± 0.1 µM. The Kd [2, 8] was 1.3 ± 0.2 µM and the Kd [3, 10] was 1.4 ± 0.1 µM.

LYTLPDDSTHQLLQPH [BOC1000–1015] was tested, and the Kd [5] was 17 ± 2 µM.

With SYSVQTMETVPYQPFP [TBX4_428–443] the “KD, merlin FERM domain” value [6] was “N.B” and the Kd [3, 11] was 1 ± 0.1 µM.

For “THHKALQEIRNSLLPF [LATS1_73–88, reference compound]”, the Kd [1] was 1 ± 0.1 µM and the Kd [4] was 1.3 ± 0.1 µM.

Substance TNGAYSVNTFKEHHST has a Kd [3, 11] of 0.11 ± 0.01 µM.

TNGYASVNTFKEHHST showed a Kd [3, 11] of 58 ± 5 µM.

Work on TNGYYSANTFKEHHST yielded a Kd [3, 11] of 50 ± 6 µM.

TNGYYSVNTFKEHHST was tested, and the Kd [3, 11] was 0.1 ± 0.01 µM.

In the case of YYSVNTFKEHHSTPTI [KIRREL3_637–652], the “KD, merlin FERM domain” value [6] is reported as “N.B”.
